Laboratory results: PubChem BioAssay AID1963967 (Molecular Pharmacology Branch, DTP, NCI, 2024)
Values joined by “and” are separate entries in the source; they are usually repeats but may differ in a detail not shown here. Equal entries are not always repeated.

Tested on: 855422-203-R-J1-PDC spheroids with HUVEC/MSC, viability
Experiment: Anticancer human tumor 855422-203-R-J1-PDC patient-derived bladder carcinoma cell line growth inhibition [PI3K]
Conditions: for viability, T/C: stronger effect = lower value
Source text: Combinatorial screen of targeted agents with the PI3K inhibitors inavolisib, alpelisib, duvelisib, and copanlisib in multi-cell type tumor spheroids
A high-throughput screen of multi-cell type tumor spheroids was designed to identify active combinations of targeted small molecules and PI3K pathway inhibitors. Complex spheroids include a stromal component modeled by human endothelial cells (HUVEC) and fibroblasts modeled by human mesenchymal stem cells (MSCs). The concentration ranges selected for each drug and investigational agent were based upon clinically achievable concentrations if the clinical Cmax of the agent was known.
Compounds. The drugs and investigational agents: inavolisib (NSC800729), alpelisib (NSC765974), duvelisib (NSC772469), copanlisib (NSC816437), ipatasertib (NSC767898), afuresertib (NSC778305), talazoparib (NSC767125), sapanisertib (NSC764658), selumetinib (NSC741078), tovorafenib (DAY101, NSC766906), vemurafenib (NSC761431), ravoxertinib (NSC781343), sotorasib (NSC818433), MRTX1133 (NSC 836407), abemaciclib (NSC 768073), palbociclib (NSC758247), venetoclax (NSC 766270), SY5609 (NSC837396), enzalutamide (NSC755605), and darolutamide (NSC825331), were obtained from the National Cancer Institute (NCI) Developmental Therapeutics Program Chemical Repository. The FDA-approved anticancer drug set is available from the NCI Developmental Therapeutics Program. […] The stock solutions were prepared in dimethyl sulfoxide (DMSO, Sigma-Aldrich, St. Louis, MO, cat. D2650) at 800-fold the tested concentration and stored at -70 degrees C prior to their use. All drugs and investigational agents were tested over a range starting from a high concentration at or near the clinical Cmax and decreasing in half-log increments. If the clinical Cmax for an agent had not been determined, the highest concentration tested was 10 microM.
Cell Culture. All cells were maintained in an incubator at 37 degrees C and 5% CO2 with 95% humidity. The PDC lines were cultured according to standard operating procedures established by the NCI PDMR (https://pdmr.cancer.gov/sops/default.htm). All PDCs were thawed and cultured in Matrigel-coated flasks prepared with a working solution of 1X Ham's F-12 nutrient mix, without supplementation (Invitrogen, Waltham, MA, cat. 11765054), 100 U/mL penicillin-streptomycin (Invitrogen, cat. 15140122), and 2.5% Matrigel (Corning Inc., Corning, NY, cat. 354248) for the first three passages. The 354836-022-R-J1-PDC, 475296-252-R-J1-PDC, and 997726-040-R-J2-PDC lines were cultured in 6A media, which includes advanced DMEM/F-12 (Thermo Fisher Scientific, cat. 12634028), 10 mM HEPES (Thermo Fisher Scientific, cat. 15630080), 1X GlutaMAX supplement (Thermo Fisher Scientific, cat. 35050061), 0.1 mg/mL primocin (InvivoGen, San Diego, CA, cat. ant-pm-2), 10% defined fetal bovine serum, heat inactivated (HyClone Laboratories Inc., Logan, UT, cat. SH30070.03HI), 50% L-WRN conditioned media (ATCC, cat. CRL-3276), 1.25 mM N-Acetyl-L-cysteine (Sigma-Aldrich, cat. A9165), 10 mM nicotinamide (Sigma-Aldrich, cat. N0636), 1X B-27 supplement (Thermo Fisher Scientific, cat. 17504044), 1X N-2 supplement (Thermo Fisher Scientific, cat. 17502048), and 10 microM Y-27632 dihydrochloride (Tocris Bioscience, Bristol, United Kingdom, cat. 1254). The 624824-186-R-J2-PDC line was cultured in 6C/Colon 1B media, which includes all 6A media components plus 50 ng/mL human EGF recombinant protein (Thermo Fisher Scientific, cat. PHG0311). […]

[1] = curve of first compound, second compound 0.0316 µM
[2] = curve of first compound, second compound 0.1 µM
[3] = curve of first compound, second compound 0.316 µM
[4] = curve of first compound, second compound 1 µM
[5] = second compound 0.0316 µM, first compound 0.0316 µM
[6] = second compound 0.0316 µM, first compound 0.1 µM
[7] = second compound 0.0316 µM, first compound 0.316 µM
[8] = second compound 0.0316 µM, first compound 1 µM
[9] = second compound 0.0316 µM, first compound 3.16 µM
[10] = second compound 0.0316 µM, first compound 10 µM
[11] = second compound 0.1 µM, first compound 0.0316 µM
[12] = second compound 0.1 µM, first compound 0.1 µM
[13] = second compound 0.1 µM, first compound 0.316 µM
[14] = second compound 0.1 µM, first compound 1 µM
[15] = second compound 0.1 µM, first compound 3.16 µM
[16] = second compound 0.1 µM, first compound 10 µM
[17] = second compound 0.316 µM, first compound 0.0316 µM
[18] = second compound 0.316 µM, first compound 0.1 µM
[19] = second compound 0.316 µM, first compound 0.316 µM
[20] = second compound 0.316 µM, first compound 1 µM
[21] = second compound 0.316 µM, first compound 3.16 µM
[22] = second compound 0.316 µM, first compound 10 µM
[23] = second compound 1 µM, first compound 0.0316 µM
[24] = second compound 1 µM, first compound 0.1 µM
[25] = second compound 1 µM, first compound 0.316 µM
[26] = second compound 1 µM, first compound 1 µM
[27] = second compound 1 µM, first compound 3.16 µM
[28] = second compound 1 µM, first compound 10 µM
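Note: agents incubated with spheroids for one week before read-out.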
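Throughout, for viability, T/C: 100% = DMSO vehicle-treated control wells.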

## CCN1CCN(Cc2ccc(Nc3ncc(F)c(-c4cc(F)c5nc(C)n(C(C)C)c5c4)n3)nc2)CC1
Compound 0.00316 µM
  viability, T/C: 111% [middle of 4 runs]
Compound 0.0316 µM
  viability, T/C: 107% [middle of 4 runs]
Compound 0.1 µM
  viability, T/C: 83.3% [middle of 4 runs]
Compound 0.316 µM
  viability, T/C: 71.9% and 69.7% (2×) and 83.9%
Compound 1 µM
  viability, T/C: 60.2% [middle of 4 runs]
Curve of compound
  IC50: > 1000 nM

## Cn1ncc(Cl)c1-c1cc(C(=O)NC(CN)Cc2cccc(F)c2)sc1Cl (stereo not given) + Cc1nc(NC(=O)N2CCCC2C(N)=O)sc1-c1ccnc(C(C)(C)C(F)(F)F)c1
[1]
  IC50: 1020 nM
[2]
  IC50: 1160 nM
[3]
  IC50: 893 nM
[4]
  IC50: 637 nM
Curve of first compound, second compound 3.16 µM
  IC50: < 31.6 nM
Curve of first compound, second compound 10 µM
  IC50: < 31.6 nM
[5]
  viability, T/C: 100%
[6]
  viability, T/C: 78%
[7]
  viability, T/C: 71%
[8]
  viability, T/C: 50.1%
[9]
  viability, T/C: 32.6%
[10]
  viability, T/C: 9.93%
[11]
  viability, T/C: 89.6%
[12]
  viability, T/C: 77.6%
[13]
  viability, T/C: 71.8%
[14]
  viability, T/C: 50.9%
[15]
  viability, T/C: 32.9%
[16]
  viability, T/C: 9.68%
[17]
  viability, T/C: 89.3%
[18]
  viability, T/C: 74.6%
[19]
  viability, T/C: 64.8%
[20]
  viability, T/C: 52.4%
[21]
  viability, T/C: 25.8%
[22]
  viability, T/C: 7.56%
[23]
  viability, T/C: 64.8%
[24]
  viability, T/C: 65.3%
[25]
  viability, T/C: 55.5%
[26]
  viability, T/C: 46.5%
[27]
  viability, T/C: 21.3%
[28]
  viability, T/C: 3.26%
Second compound 3.16 µM, first compound 0.0316 µM
  viability, T/C: 46.9%
Second compound 3.16 µM, first compound 0.1 µM
  viability, T/C: 43%
Second compound 3.16 µM, first compound 0.316 µM
  viability, T/C: 41.9%
Second compound 3.16 µM, first compound 1 µM
  viability, T/C: 31.4%
Second compound 3.16 µM, first compound 3.16 µM
  viability, T/C: 13.9%
Second compound 3.16 µM, first compound 10 µM
  viability, T/C: 2.81%
Second compound 10 µM, first compound 0.0316 µM
  viability, T/C: 25.8%
Second compound 10 µM, first compound 0.1 µM
  viability, T/C: 23.4%
Second compound 10 µM, first compound 0.316 µM
  viability, T/C: 20.3%
Second compound 10 µM, first compound 1 µM
  viability, T/C: 16.3%
Second compound 10 µM, first compound 3.16 µM
  viability, T/C: 9.69%
Second compound 10 µM, first compound 10 µM
  viability, T/C: 0.43%

## CC1(C)CCC(Nc2ncc(C(F)(F)F)c(-c3c[nH]c4c(P(C)(C)=O)c(C#N)ccc34)n2)CN1 (stereo not given) + COc1c(OCCCN2CCOCC2)ccc2c3n(c(=NC(=O)c4cnc(N)nc4)nc12)CCN3
Curve of first compound, second compound 0.00316 µM
  IC50: < 31.6 nM
Curve of first compound, second compound 0.01 µM
  IC50: < 31.6 nM
[1]
  IC50: < 31.6 nM
[2]
  IC50: < 31.6 nM
[3]
  IC50: < 31.6 nM
[4]
  IC50: < 31.6 nM
Second compound 0.00316 µM, first compound 0.0316 µM
  viability, T/C: 24.9%
Second compound 0.00316 µM, first compound 0.1 µM
  viability, T/C: 20.8%
Second compound 0.00316 µM, first compound 0.316 µM
  viability, T/C: 22.4%
Second compound 0.00316 µM, first compound 1 µM
  viability, T/C: 23.3%
Second compound 0.00316 µM, first compound 3.16 µM
  viability, T/C: 24.3%
Second compound 0.00316 µM, first compound 10 µM
  viability, T/C: 2.48%
Second compound 0.01 µM, first compound 0.0316 µM
  viability, T/C: 21.2%
Second compound 0.01 µM, first compound 0.1 µM
  viability, T/C: 18.6%
Second compound 0.01 µM, first compound 0.316 µM
  viability, T/C: 21.3%
Second compound 0.01 µM, first compound 1 µM
  viability, T/C: 19.8%
Second compound 0.01 µM, first compound 3.16 µM
  viability, T/C: 20.4%
Second compound 0.01 µM, first compound 10 µM
  viability, T/C: 3.49%
[5]
  viability, T/C: 16.7%
[6]
  viability, T/C: 17.2%
[7]
  viability, T/C: 13.9%
[8]
  viability, T/C: 16.9%
[9]
  viability, T/C: 16.6%
[10]
  viability, T/C: 1.53%
[11]
  viability, T/C: 12.7%
[12]
  viability, T/C: 10.7%
[13]
  viability, T/C: 12.4%
[14]
  viability, T/C: 10.1%
[15]
  viability, T/C: 8.84%
[16]
  viability, T/C: 1.32%
[17]
  viability, T/C: 5.48%
[18]
  viability, T/C: 4.79%
[19]
  viability, T/C: 5.47%
[20]
  viability, T/C: 6.03%
[21]
  viability, T/C: 3.06%
[22]
  viability, T/C: 1.28%
[23]
  viability, T/C: 1.83%
[24]
  viability, T/C: 2.45%
[25]
  viability, T/C: 2.02%
[26]
  viability, T/C: 2.08%
[27]
  viability, T/C: 1.22%
[28]
  viability, T/C: 1.25%
